Reference: US6492344B1, “Syndecan enhancer element and syndecan stimulation of cellular differentiation” (Biotie Therapies Corp., priority 1993, dated 2002)
Entries after “also recorded” stand apart in the source; their conditions may differ.

What was measured:
3T3NIH cells = experiment: 125-IdU incorporation (DNA synthesis) assay in 3T3NIH cells; type: cell-based, mouse; settings: pFiRE transfected 3T3NIH cells; 10 ng/ml growth factor (2 ng/ml TGF-β) or 5% FCS
Description: Effect of Various Growth Factors on Enhancer Activation in NIH3T3 Cells. Plasmid pFiRE was transfected into 3T3NIH cells as described, supra. The cells were starved in DMEM medium supplemented with 5% fetal calf serum to about 70% confluence. Fetal calf serum was then replaced with 2% carboxy-methyl-Sephadex eluted fetal calf serum (CMS) 12 hrs before adding the growth factors. Various growth factors in the same medium, 5% fetal calf serum (FCS) supplemented medium or a control containing the medium, without any added growth factors were incubated with the transfected cells for 2 days, and CAT activity was measured. The effect of 10 ng/ml of FGF-2, FGF-1, FGF-4, FGF-7 (KGF), EGF, IGF1, TGFα, IFNγ, and PDGF and 2 ng/ml TGF-β were tested. The human recombinant growth factors were purchased from Peprotech (FGF-1, -2, and -7), Boehringer (FGF-2) or from Calbiochem (PDGF) TGF-β was purchased from Sigma. The effect of the added growth factors and FCS on DNA synthesis was also tested by a 125-IdU incorporation assay. This cell proliferation assay was carried out by incubating cells for 4-6 hrs with 0.25 μCi/ml 5-[^125I]iodo-2′-deoxyuridine (IdU, Amersham), washed several times with PBS and solubilized in 1 M NaOH. Radioactivity was measured using a gamma counter (Wallac).

syndecan-1 gene [1] = experiment: Syndecan-1 mRNA quantification in 3T3NIH cells exposed to FGF-2; type: cell-based, mouse; settings: 3T3NIH cells, 10 ng/ml FGF-2
Description: Northern Blot—RNA was isolated from 3T3 and NMuMG cells using 4 M guanidine isothiocyanate and CsCl density centrifugation (Chirgwin et al., Biochemistry 18:5294-5299 (1979)). RNA samples were size-separated on a 1% agarose formaldehyde gel, transferred to a GeneScreen Plus™ membrane (New England Nuclear) and hybridized with a multi-prime (Amersham) labeled partial cDNA clone for mouse syndecan (PM-4) (Saunders et al., J. Cell Biol. 108:1547-1556 (1989)). After hybridization, the membrane was washed in 2×SSC and 1.0% SDS at 65° C. (high stringency conditions). For rehybridization with glyceraldehyde-3-phosphate-dehydrogenase (GAPDH; Fort et al., Nucleic Acid Res. 13:1431-1442 (1985)), the bound PM-4 probe was removed as recommended by the manufacturer of the filter (NEN).
Following incubation with FGF-2, syndecan MRNA was isolated and quantified. Control incubations without FGF-2 were also performed. Syndecan mRNA was isolated and quantified […] FGF-2 treatment following 6, 12, and 24 hr incubations. The quantification of syndecan mRNA production can be seen in FIG. 11a. GAPDH mRNA was used as a loading control. […] The enhancement appears to be maximal at about 6 hrs of FGF-2 incubation, and decreases thereafter. In the Figure, two individual exposures for each time point are presented.

[2] = test system: FGF-inducible Response Element (FiRE); experiment: FiRE / Syn Prom CAT reporter in MCA3D keratinocytes; type: cell-based; settings: MCA3D mouse keratinocytes transfected with FiRE construct
Method: The cells used for proximal promoter constructs were 3T3 NIH, S115 (either hormone-treated or not) and nMuMG cells. For enhancer constructs we used 3T3 NIH cells grown in 2% CMS medium and MCA 3D cells grown in Ham's medium. 3T3 NIH cells were also used to test the effect of growth factors in 2% CMS medium with 10 ng/ml FGF-2 and 2ng/ml TGFβ-1. MCA 3D cells were used to test the effect of 10 ng/ml KGF.
FiRE is Induced Selectively by FGF-7 in Keratinocytes. The ability of FiRE to enhance transcription was tested in the mouse keratinocyte cell line MCA3D (Kuliz-Martin et al., Carcinogenesis 4:1367-1377 (1983)). MCA3D cells were transfected as described supra for mouse NIH3T3 cells. Following transfection, the cells were treated with fetal calf serum, PDGF, FGF-1, FGF-2, and FGF-7 as described supra for the NIH3T3 cells.

syndecan-1 gene [3] = experiment: Nuclear run-off of syndecan-1 transcription in 3T3NIH cells; type: cell-based, mouse
Method: The same cells were exposed to 10 ng/ml of FGF-2 for 4 hours and 24 hours with or without exposure to FGF (Control) followed by the isolation of nuclei for the run-off experiment. c-jun or nur transcription was used as a positive control and β-actin as a loading control. In nuclei isolated 4 hours after FGF exposure the level of transcription of the syndecan-1 gene was elevated as were the levels for c-jun and nur as positive controls.

## FGF-2: Basic fibroblast growth factor (FGF-2 or bFGF); recombinant human
3T3NIH cells
  DNA synthesis / cell proliferation (125-IdU incorporation): significant increase in DNA synthesis
syndecan-1 gene [1]
  time of maximal enhancement of syndecan mRNA: about 6 hrs
syndecan-1 gene [1]; after 4 hrs
  syndecan mRNA expression: significantly enhanced (several fold)
[2]
  FiRE activation: failed to activate FiRE; also recorded: only slightly activated FiRE
syndecan-1 gene [3]; after 24 hours of 10 ng/ml FGF-2
  transcription of syndecan-1 (run-off): not detectable
syndecan-1 gene [3]; nuclei isolated 4 hours after 10 ng/ml FGF exposure
  level of transcription of the syndecan-1 gene (run-off): elevated
